Measurements reported in patent US20220243211A1, “PEPTIDE NUCLEIC ACID COMPOSITIONS WITH MODIFIED HOOGSTEEN BINDING SEGMENTS AND METHODS OF USE THEREOF” (Yale University, priority 2019, published 2022).

Legend:
[1] = Zeta potential and hydrodynamic diameter of formulated NPs by dynamic light scattering; assay type: physicochemical; conditions: NPs containing PNA/donor DNA, PBS buffer, n = 3; for Z Av Diameter: dynamic light scattering
Procedure: Blank NPs containing no PNA and a mismatch donor DNA as a control were prepared as a control. The mismatched donor DNA was purposely added into blank NPs because addition of donor DNA helps to produce a similar surface charge on the control NPs as on the test NPs encapsulated with PNA/donor DNA combinations. […] All NP in the diameters were in the range of 200-350 nm, as measured by dynamic light scattering (Table 1), consistent with previous measurements (McNeer, et al., Nat Commun 6, 6952 (2015), Fields, et al., Adv Healthc Mater 4, 361-366 (2015), Fields, et al., J Control Release 164, 41-48 (2012)). PNA/DNA-loaded NPs were cationic (Fields, et al., Adv Healthc Mater 4, 361-366 (2015), Fields, et al., J Control Release 164, 41-48 (2012)) for PBAE/PLGA/MPG NPs (Table 1).

[2] = tested on: F508 del CFTR in CFBE cells at ALI; assay: Digital droplet PCR quantification of gene editing; assay type: cell-based, human; conditions: apical PNA/DNA NPs, 2 mg/dose, 3 doses
Procedure: (§1) FIG. 5A is a Schematic of treatment of cells grown at ALI. FIG. 5B is a bar graph showing Ussing Chamber assay results. CFBE cells at ALI were treated apically at 2 mg/dose for 3 doses with 48 hours between each dose **p<0.001; ***p<0.002. FIG. 5C is a dot plot showing digital droplet (ddPCR) quantification of gene editing in genomic DNA isolated from CFBE cells at ALI treated apically at 2 mg/dose for 3 doses with 48 hours between each dose ***p<0.002.
Nanoparticles were suspended in culture media, vortexted, and sonicated in a water bath (30s) and added directly to cells. For cells treated on collagen-coated plastic in 12-well plates, the cells were treated at a concentration of 2 mg/mL. For cells treated in 6-well plates at ALI, the cells were treated apically with 250 uL of media containing 2 mg of particles. […]
gDNA was extracted from CFBE cells using the Wizard SV DNA Purification System (Promega, Madison, Wis.) according to manufacturer's instructions. The concentration of extracted gDNA samples was measured using a QuBit® dsDNA BR assay kit (Invitrogen, Carlsbad, Calif.) according to manufacturer's instructions. […] Droplets were allowed to rest at 4° C. for at least 30 minutes after cycling and were then read using the QX200™ Droplet Reader (Bio-Rad). Data were analyzed using QuantaSoft™ software. […]

CFBE cells at ALI = assay: Ussing chamber assay, short circuit current; assay type: cell-based, human; conditions: apical PBAE/PLGA/MPG NPs, 2 mg/dose, 3 doses
Procedure: as §1
Ussing experiments were performed as previously described (Bruscia, et al., Proc Natl Acad Sci USA 103, 2965-2970 (2006)). An Easy Mount Ussing Chamber System (Physiologic Instruments) was heated to 37° C. Electrode tips were prepared by partial filling with 3% agar in 3M KCl and subsequently backfilling with a 3M KCl. The Ussing chambers are equipped with current and voltage electrodes loaded with these tips. […] The transepithelial voltage and membrane resistance was measured during each pulse. Under these conditions, short circuit current (Isc) was calculated using Ohm's Law at the timepoint wherein the basolateral chamber was filled with a chloride-free solution following 20 minutes of equilibration in Kreb's Bicarbonate Ringers. […]

Substance | Zeta Potential [1] | Z Av Diameter [1] | gene editing (ddPCR, fractional abundance of edited CFTR allele) [2] | Isc (short circuit current), cAMP stimulated (CFBE cells at ALI)
H-KKK-TJTJJTTT-OOO-TTTCCTCTATGGGTAAG-KKK-NH2 [hCF PNA] (TNTNNTTTTTTCCTCTATGGGTAAG; listed as DNA, chemistry not fully specified) | 14.2 mV | 291.7 nm | minimal correction | minimum Isc
H-KKK-TJTJJTTT-OOO-TTTCCTCTATGGGTAAG-KKK-NH2 [γhCF PNA-h] (TNTNNTTTTTTCCTCTATGGGTAAG; listed as DNA, chemistry not fully specified) [tail clamp PNA targeting human CFTR gene with MPγ monomers in Hoogsteen domain] | 13.3 mV | 293.2 nm | −5% | marked increase
